Data taken from patent publication US20160158245A1, “PHARMACEUTICAL FORMULATION CONTAINING THIENOTRIAZOLODIAZEPINE COMPOUNDS” (ONCOETHIX GmbH, priority 2013, published 2016).

Key:
Type in all cases: cell-based
[1] = system: ALL cell lines (Jurkat, RS 4-11, TOM-1) and AML cell lines (HL60, K562, KG1 and KG1a); assay: Apoptosis assessment, statements over the ALL and AML cell lines
Procedure: a total of 1×10^6 cellsderived from patients or cell lines were resuspended in 1 mL culture medium and incubated with the indicated dosages of OTX015 prepared freshly from 1 mM stock solution in DMSO. Control cells were incubated with the corresponding amount of dimethyl sulfoxide (DMSO 0.2-1%) to exclude toxicity of the excipient. Apoptotic cells were detected by cytofluorometric analysis using a FACScan (Becton Dickinson, Mountain View, USA). Cells were stained with propidium iodide (PI; 5 μg/mL; Becton Dickinson) and concomitantly for 15 minutes at RT with annexin-V-FITC (Becton Dickinson) according to the manufacturer's instructions to determine outer membrane phosphatidyl serine exposure. Data were analyzed with the Flowjo (Tree Star Inc., Ashland, USA) flow cytometry software.
Compound (1-1) induced apoptosis in three ALL cell lines (Jurkat, RS 4-11, TOM-1) and four AML cell lines (HL60, K562, KG1 and KG1a) that were treated with different doses of the drug as detected by outer membrane phosphatidylserine exposure and propidium iodide incorporation at different time points (FIGS. 13A-13C and FIGS. 14A-14D). […] In all other cell lines, 50% of cells became apoptotic within 12 to 24 hours after treatment with 100 nM of Compound (1-1).

ALL and AML cell lines = assay: Cell cycle analysis (PI flow cytometry)
Procedure: For conventional cell-cycle analysis, 1×10^6 cells were harvested, washed in PBS, and fixed in 70% ice cold ethanol. Cells were incubated with 100 μg/mL RNAse (Sigma, Saint-Quentin Fallavier, France) and stained with PI (25 μg/mL, Becton Dickinson) followed by an incubation period of 30 minutes at 37° C. Subsequently, cell-cycle distribution was determined by cytofluorometric analysis. Data were analyzed with the Flowjo (Tree Star Inc., Ashland, USA) flow cytometry software.

[2] = system: BRD2, BRD3, BRD4 and c-MYC; assay: Immunoblot of BRD proteins and c-MYC in leukemia cell lines; settings: different leukemia cell lines, 100 nM, within 3 hours
c-MYC = assay: QT-PCR of c-MYC in leukemia cell lines; settings: all cell lines, 250 nM and 500 nM, 48 h
Procedure: The oncogene c-MYC is thought to be activated by BRD4 and is crucial for leukemia maintenance. […] We determined basal gene expression levels of c-MYC in different leukemia cell lines showing heterogeneous results without clear correlation to biologic effects of Compound (1-1) in regard to MTT, apoptosis or cell cycle effects (FIGS. 42A and 42B).
The total RNA obtained after extraction with TRIZOL (Invitrogen, Grand Island, USA) were titrated to 1 μg/uL and stored at −80° C. The complementary DNA (cDNA) was synthesized from 1 μg RNA. The RQ-PCR reactions (BRD2, BRD3, BRD4, c-MYC and ABL) were performed in a volume of 25 ul from a tenth of the cDNA (equivalent to 100 ng of RNA) on a thermocycler ABI7900HT in standard mode (1 cycle of 2 minutes at 50° C.-10 minutes at 95° C. followed by 50 cycles of 15 seconds at 95° C.-1 minute at 60° C.).

[3] = system: BRD4, BRD3 and c-MYC in HL60; assay: Immunoblot (protein level) in HL60; settings: HL60, 500 nM
Procedure: (§1) FIGS. 43A-43L illustrate effects of OTX015 at the protein level for BRD 4, BRD2 and BRD 3 as well as c-MYC. […] AML cell lines HL60, K562 (FIGS. 43A-43C; FIG. 43D-43F) and ALL cell lines Jurkat and RS4-11 (FIG. 43G-43I; FIG. 4JD-43L) were treated with OTX015 at 500 nM and compared to controls exposed to according DMSO. At indicated time-points proteins were extracted and immunoblotted with BRD4, BRD3, BRD2 or c-MYC antibodies after gel electrophoresis. […] One representative experiment out of three is shown.
(§2) The membranes were blocked with LiCor blocking buffer (LiCor, Lincoln, Nebr., USA) and incubated with the respective primary antibody: anti-BRD4 (Epitomics 5716-1, Burlingame, USA), anti-BRD3 (ab56342, AbCam, UK), anti-BRD2 (ab37633, AbCam, UK), anti c-MYC (sc-764 (N262), Santa Cruz, USA) and anti-GAPDH (Invitrogen 398600, Grand Island, USA). Blots were stained with either goat anti-rabbit InfraRedDye 680RD or goat anti-mouse InfraRedDye 800CWsecondary antibody (LiCor). Membranes were imaged using a LiCor Odyssey scanner. Boxes were manually placed around each band of interest, which returned near-infrared fluorescent values of raw intensity with intra-lane background subtracted using Odyssey 3.0 analytical software (LiCor).

[4] = system: BRD4, BRD3 and c-MYC in K562; assay: Immunoblot (protein level) in K562; settings: K562, 500 nM, starting after 24 h
Procedure: as §1, §2

c-MYC in Jurkat = assay: Immunoblot (protein level) in Jurkat; settings: 500 nM, 48 h and 72 h
Procedure: as §1, §2

[5] = system: BRD4, BRD3 and c-MYC in RS4-11; assay: Immunoblot (protein level) in RS4-11; settings: RS4-11, 500 nM
Procedure: as §1, §2

[6] = system: c-MYC in BM cells of patient 5; assay: Immunoblot of c-MYC in patient bone marrow cells treated ex vivo; settings: BM cells of patient 5, 250 and 500 nM, 72 h
Procedure: FIGS. 45A-45E illustrate modulation of c-MYC at the protein level in a patient sample. Protein extracts were obtained from bone marrow (BM) cells of patient 5 (FIG. 44D; FIGS. 45A-45D) upon ex vivo treatment with 250 and 500 nM of OTX015 respectively. […] Bone marrow cells from patient 5 were treated with OTX015 at 250 nM and 500 nM and compared to controls exposed to according concentrations with DMSO. Proteins were extracted at 72 h and immunoblotted with appropriate c-MYC antibodies after gel electrophoresis. […] Expression level of cMYC relative to ABL were realised by RQ-PCR at three time points 24, 48 and 72 h (FIG. 45B). Results in FIG. 45B are shown with means±SD from duplicates.
as §2, with “Boxes were manually placed around each band of interest, which returned near-infrared fluorescent values of raw intensity with intra-lane background subtracted using Odyssey 3.0 analytical software (LiCor).” left out

Structure (SMILES): Cc1sc2c(c1C)C(c1ccc(Cl)cc1)=N[C@@H](CC(=O)Nc1ccc(O)cc1)c1nnc(C)n1-2 [Compound (1-1), 2-[(6S)-4-(4-chlorophenyl)-2,3,9-trimethyl-6H-thienol[3,2-f]-[1,2,4]triazolo[4,3-a][1,4]diazepin-6-yl]-N-(4-hydroxyphenyl)acetamide dihydrate]
- percentage of apoptotic cells ([1]; 100 nM, within 12 to 24 hours, all cell lines other than K562 and KG1a): 50%
- induction of apoptosis, dose dependence ([1]; 72 h, KG1a, NOMO1, RS4-11, BV-173, Jurkat, TOM-1): dose-dependent manner
- induction of apoptosis ([1]; different doses and time points): induced apoptosis in all cell lines tested but to a lesser extent in K562 and KG1a cells
- S phase fraction (ALL and AML cell lines; 48 h, AML and ALL cell lines): decreased S phase fraction in almost all cell lines
- cell cycle arrest (ALL and AML cell lines; all cell lines): induced cell cycle arrest in all cell lines
- regulation of BRD2, BRD3, BRD4 and c-MYC at the protein level [2]: rapid down-regulation of BRD2, BRD3 and BRD4 associated with c-MYC down-regulation
- c-MYC gene expression (c-MYC): c-MYC downregulation was observed in all cell lines
- c-MYC protein level ([3]; 24 h): transient downregulation
- BRD4 and BRD3 protein level ([3]; 72 h): remained unaffected
- BRD4, BRD3 and c-MYC protein level [4]: downregulation of BRD4, BRD3 and c-MYC
- c-MYC protein level (c-MYC in Jurkat): c-MYC downregulation
- BRD4, BRD3 and c-MYC protein level [5]: remained unaffected
- c-MYC protein level [6]: downregulation of c-MYC
